A word on the melting point: it is the temperature of the solid-liquid transition.

As to `CC(c1ccc(O)cc1)C(CS)C(=O)NC(Cc1ccc(O)cc1)C(=O)O` (centres undefined), the melting point is 115 °C. As for `CC(=O)Oc1cc(S(=O)(=O)c2ccccc2)ccc1OCc1ccccc1`, the melting point lay in the range of 107 to 111 °C. In the case of `C=CCNc1nc(NC)c2cc([N+](=O)[O-])ccc2n1`, the melting point lay within 211 to 212 °C. Molecule `Cn1nc(N)c2c(F)cccc21` gave a melting point of 125 to 127 °C. In the case of `COc1cc(OC)nc(NC(=O)NS(=O)(=O)c2cccnc2-n2cncn2)n1`, the melting point is 226 to 230 °C. `O=C1OC(CO)CN1c1ccc2ccccc2c1` (centres undefined) registered a melting point of 174 °C. `COC(=O)c1cccc(Nc2ccc(OC)cc2)c1` returned a melting point of 120 °C.

`CC1=C([N+](=O)[O-])C(c2ccccc2C(F)(F)F)c2c[nH]nc2N1` (centres undefined) had a melting point of 257 to 258 °C. `O=C(CCCOc1cccc(CNC(=O)c2nc3ccccc3c(=O)[nH]2)c1)Nc1nc[nH]n1`: the melting point fell in the range of 189 to 190 °C. For `Cc1[nH]c(=O)ccc1C(=O)c1ccc(O)cc1` the value was 280 to 282 °C; for `Cc1ccccc1S(=O)(=O)NC1CCc2sc(C3=NNC(=O)CC3)cc2C1` (centres undefined), 204 to 206 °C. As for `FC(F)(F)c1cccc(OC(c2ccc(Cl)cc2)c2ncco2)c1` (centres undefined), the melting point was in the range of 66 to 67 °C.

As for `O=c1ncc(Cl)cn1COCc1ccccc1`, the melting point was determined as 125 °C. Consider `O=C(Oc1ccc(/C=c2\[nH]c(=O)/c(=C/c3ccccc3)[nH]c2=O)nc1)c1ccncc1`, for which the melting point fell in the range of 262 to 264 °C. In the case of `CN1Cc2c(C(=O)OC(C)(C)C)ncn2-c2ccncc2C1=O`, the melting point lay in the range of 214 to 215 °C. On to `CCN(CC)CC#CC(=O)Nc1ccc2ncc(C#N)c(Nc3cccc(Br)c3)c2c1`, for which the melting point is 133 to 135 °C. As for `O=C(CC1CCCCC1)Nc1ccc2oc3c(c2c1)CCCC3`, the melting point lay in the range of 189 to 191 °C. `CCCc1c(OCCCOc2ccc3c(c2CCC)OC(CCC(=O)O)CC3=O)ccc(C(C)=O)c1O` (centres undefined) yielded a melting point of 149 to 150 °C. Regarding `CCCc1c(OCc2ccccc2)ccc2c(C)c(C(=O)c3ccc(OC)cc3)oc12`, the melting point was in the range of 105 to 106 °C.

Consider `C=C(C)C(=O)OCc1c(Br)c(Br)c(COC(=O)C(=C)C)c(Br)c1Br`, for which the melting point lay within 148 to 149 °C. Take `Cc1cccc(C)c1C(=O)OC1CCCCC1=O` (centres undefined): the melting point fell in the range of 82 to 83 °C. In turn, `COc1ccccc1C1(O)C(O)CC(c2ccccc2)(c2ccccc2)C2CN(Cc3ccccc3)CC21` (centres undefined) showed a melting point of 236 °C. With `O=c1nc(-c2cccc(Cl)c2)c2cc(C(c3ccc(Cl)cc3)n3ccnc3)ccc2n1Cc1ccncc1` (centres undefined) the figure was 61.4 °C; with `O=C(O)CCc1ccc(C=CC(=O)c2ccccc2)cc1`, 159 to 160 °C. For the molecule `CS(=O)(=O)c1ccc(-n2cccc2-c2ccc(F)cc2)cc1`, the melting point is 195 to 196 °C. As to `CC(C)(ON1C(C)(C)CC(OC(=O)c2ccccc2)CC1(C)C)c1ccccc1`, the melting point is 105 to 108 °C. For `O=C1CCCCC1C(C[N+](=O)[O-])c1ccc(F)cc1` (racemic) the value was 84 to 85 °C; for `O=C(CCc1ccc(O)cc1)OCCC(c1ccccc1)(c1ccccc1)c1ccccc1`, 105 to 107 °C; for `COc1coc2cc(NS(C)(=O)=O)c(Oc3ccccc3)cc2c1=O`, 164 to 166 °C. In turn, `Cn1c(-c2cccc(-c3cc4ccccc4n3C)c2)cc2ccccc21` came in with a melting point of 150 °C. `O=C(NC(=O)c1c(F)cccc1F)Nc1ccc(OC(c2ccc(Cl)cc2)C2CC2)cc1` (centres undefined) yielded a melting point of 185 to 188 °C.

Consider `CCc1nc2c([C@H](O)CO)cccc2cc1C`, for which the melting point was 66 °C.

In turn, `C1=CCC2=C(C1)CC1=C(CC=CC1)C2` showed a melting point of 146 to 147 °C. `CCCCN1C(=O)CC(C(=O)Nc2nccs2)C(=O)c2ccc(Cl)cc21` (centres undefined) came in with a melting point of 238 to 240 °C. In turn, `CC(=O)OCC(=O)c1cc2c(s1)CCC1CC(=O)N(c3ccc(C)cc3)N=C21` (centres undefined) registered a melting point of 144 to 145 °C. For the molecule `Cc1nccn1-c1cc(C#N)cc(C(F)(F)F)c1`, the melting point lay within 132 to 134 °C.

The molecule `COCCNC(=O)c1ccc(-c2ccc3nnn(Cc4ccc5ncccc5c4)c3n2)cc1F` came in with a melting point of 162 to 164 °C.

`COC(=O)C1=C(C)NC(C)=C(C(=O)OCC2CCCO2)C1c1cccc(C(F)(F)F)c1` (centres undefined) showed a melting point of 108 to 110 °C. With `C[C@H](NC(=O)c1cc(Cl)cnc1Oc1ccc(F)cc1)c1ccc(C(=O)O)cc1`, the melting point was found to be 198 °C. For the molecule `O=C(Nc1cccc(S(=O)(=O)CCO)c1)c1cnn2c(C(F)F)cc(-c3ccc(C(F)(F)F)cc3)nc12`, the melting point was found to be 205 °C. `CC(Sc1ccc(OC(C)(C)C(=O)O)cc1)c1cccc2c1cnn2-c1ccc(C(F)(F)F)cc1` (racemic) registered a melting point of 85 to 90 °C.

For `Cc1cc(Nc2ccnc(Nc3ccc(S(=O)(=O)N(C)C4CCN(Cc5nccs5)CC4)cc3)n2)ccc1F`, the melting point lay within 176 to 177 °C.

`OC1(c2ccc(Cl)cc2)CCN(CCNC(c2ccccc2)c2ccccc2)CC1`: the melting point worked out at 114 °C.

`CN1CCN(C(=O)COC2c3ccccc3C(=O)N2c2ccc3ccc(Cl)nc3n2)CC1` (centres undefined) had a melting point of 175 °C. `CC(C)(C)OC(=O)N1CCN(CCSc2nc3ccccc3[nH]2)CC1`: the melting point is 175 to 176 °C. In turn, `COC(=O)Nc1ccc(OC)c(OC)c1` returned a melting point of 83 to 87 °C. As for `O=C(NCC(C(O)c1ccc([N+](=O)[O-])cc1)N1CCC(Cc2ccccc2)CC1)c1ccccc1` (centres undefined), the melting point lay within 143 to 147 °C.

In turn, `Fc1ccc(N2CCN(Cc3ccc(CCl)cc3)CC2)cc1` returned a melting point of 81 to 83 °C. Consider `COC(=O)C(C#N)c1c[nH]c2ccc(OC)cc12` (centres undefined), for which the melting point fell in the range of 98 to 100 °C. In turn, `O=C(O)C1CCc2cc([N+](=O)[O-])ccc2O1` (centres undefined) returned a melting point of 180 °C. Regarding `O=C1CCCN1c1cccc(-n2cnc3cc(-c4ccoc4)cnc32)c1`, the melting point was 208 to 210 °C. `O=c1[nH]c2c(CCN3CCN(c4ncccn4)CC3)cccc2o1` returned a melting point of 189 to 190 °C. Molecule `CCOC(=O)[C@H](Cc1ccc(OC)c(OC)c1)NC(=O)c1ccnc(Br)c1` had a melting point of 108 to 109 °C.

Consider `Cc1ccc2c(c1)c(N1CCNCC1)c(C#N)c(=O)n2Cc1ccccc1`, for which the melting point is 152 °C. The molecule `CON=C1C(C)(C)c2cc3c(cc2C1(C)C)N(SCc1nccc(OC)c1C)CN3` registered a melting point of 100 °C. For `CCCCCC(C)C(C)c1cc(O)c2c(c1)oc(=O)c1ccncc12` (centres undefined) the value was 122 to 123 °C; for `CC(C)(C)OC(=O)NCCNC(=O)c1n[nH]cc1-c1cccc(F)c1`, 175 to 176 °C; for `Nc1cccc(-n2c(=O)c(Cc3cccnc3)nc3cccnc32)c1`, 168 to 170 °C. With `C#Cc1ccc(OC)c(OCC)c1` the figure was 95 to 96 °C; with `O=C(C=Cc1ccc(O)cc1)c1c(O)cccc1O`, 190 to 192 °C; with `Nc1nc2ccc(SC(F)(F)F)cc2s1`, 155 °C. The molecule `COC(=O)c1c(C(=O)OC)n(Cc2cccc(C(N)=S)c2)c2ccccc12` gave a melting point of 176 to 178 °C.

Molecule `COc1cc(C=CC(C)=O)ccc1OCC1CO1` (centres undefined) returned a melting point of 123 to 124 °C. `CC(C)CCOc1c(-c2ccc(S(C)(=O)=O)cc2)cnn(-c2ccc(F)cc2)c1=O` showed a melting point of 117 to 120 °C. As to `O=C(O)C1=COc2c(C(=O)c3cccs3)cc(Cl)c(Cl)c2O1`, the melting point was in the range of 233 to 236 °C.

For `CC1CC(=O)C=C(c2ccc(OCC(=O)O)c(Cl)c2Cl)C1` (centres undefined), the melting point fell in the range of 187 to 190 °C. `Cc1cc(Nc2cncc(Nc3cccc(NC(=O)c4ccccc4)c3)n2)n[nH]1` gave a melting point of 243 to 244 °C. Molecule `COc1cc(N)c(Cl)cc1C(=O)NCC1CCN(CCCCCNCc2ccc(F)cc2)CC1` returned a melting point of 66 to 68 °C.

On to `Nc1c2c(nc3c(O)cccc13)CCC2`, for which the melting point is 187 to 188 °C. As to `CCCCC(NC(=O)C(CS)C(C)c1ccccc1)C(=O)O` (centres undefined), the melting point turned out to be 55 °C. In the case of `CN1C(=O)CC[C@]2(C)c3ccc(-c4cc5ccccc5c5ccccc45)cc3CC[C@@H]12`, the melting point was in the range of 218 to 220 °C. `CCn1nnc(C(CO)=C(c2ccc(F)cc2)c2ccc(F)cc2)n1` gave a melting point of 82 to 84 °C. For the molecule `CCc1cc(SCc2cccc3sc(-c4ccc(C(F)(F)F)cc4)nc23)ccc1OCC(=O)O`, the melting point is 89 to 92 °C.

`C=Cc1ccc(NS(C)(=O)=O)cc1` displayed a melting point of 97 °C.

Regarding `COc1cc2ncnc(N3CCN(C(=O)NCc4ccc(C(C)C)cc4)CC3)c2cc1OC`, the melting point lay in the range of 135 to 136 °C. With `CCc1cc2c(Sc3nnc(C)s3)ncnc2s1` the figure was 132 to 135 °C; with `OC1CSC(Oc2ccc(-c3ccc(Cl)nc3)nc2)C(O)C1O` (centres undefined), 170 °C.

Molecule `Cc1cnc(C2CCCCC2)n2c1c(CCBr)c1ccccc12` registered a melting point of 137 to 139 °C. Turning to `COc1ccc(-c2cc(Cl)c3c(Cl)c(O)ccc3c2)cc1`, the melting point was 132 to 134 °C. `CC(=O)OCCSCn1cnc2c(Cl)ncnc21` showed a melting point of 82 to 87 °C. Take `COC(=O)c1ccc(S(=O)(=O)N2CC[C@H](O)C2)n1C`: the melting point lay in the range of 108 to 109 °C. Take `CC1=NN(C(=O)c2ccccc2Cl)C2(O)CCCC12` (centres undefined): the melting point fell in the range of 147 to 150 °C. `O=C1NCCN1c1ccc(S(=O)(=O)Nc2cccc(Oc3ccccc3)c2)cc1` gave a melting point of 208 to 211 °C. In turn, `CN1c2ccccc2C(c2ccccc2Br)=Nc2cccnc21` registered a melting point of 139 to 140 °C. Molecule `CC1(C)CC=C(S(=O)(=O)c2ccccc2)CC1` gave a melting point of 51 to 53 °C. For `CN1CCN(c2cccc3c2C[C@H](NC(=O)c2ccc(OC(F)(F)F)cc2)CO3)CC1` the value was 192 to 193 °C. The molecule `CC1=CC(C)(C)N2CCCc3c(O)ccc1c32` yielded a melting point of 125 to 126 °C. Take `O=S(=O)(c1ccccc1)c1ccc(NN=C2CCCN(Cc3ccccc3)CC2)cc1`: the melting point lay in the range of 142 to 146 °C. The molecule `Nc1ncnc2c1c(-c1ccc(Oc3ccccc3)cc1)cn2C1CCC2(CC1)OCCO2` came in with a melting point of 193 to 194 °C.

For the origin of these results see a melting point compilation (Tetko et al.; mined from patent text by program, amines drawn as free bases though some values may be those of a salt).
